Experimental data from patent US11518758B2, “Heteroarylaminopyrimidine amide autophagy inhibitors and methods of use thereof” (Deciphera Pharmaceuticals, LLC, priority 2019, dated 2022).

Molecular target: T1, ULK1 kinase (Homo sapiens, UniProt O75385, E37A/K38A)
T1 construct: (residues 1-283; ID NO: 2); purchased Beryllium
T1 sequence (O75385 1-283 E37A/K38A): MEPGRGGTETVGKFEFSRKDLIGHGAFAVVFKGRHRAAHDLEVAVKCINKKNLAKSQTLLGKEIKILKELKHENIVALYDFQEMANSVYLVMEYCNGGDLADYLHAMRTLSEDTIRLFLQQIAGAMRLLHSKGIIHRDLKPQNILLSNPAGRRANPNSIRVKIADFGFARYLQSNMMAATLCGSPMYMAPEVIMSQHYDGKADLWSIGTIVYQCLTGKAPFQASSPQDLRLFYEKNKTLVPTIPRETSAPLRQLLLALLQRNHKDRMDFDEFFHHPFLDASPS
Assay: Biochemical assay for ULK1.3 (coupled pyruvate kinase/lactate dehydrogenase assay)
Conditions: 0.1 nM ULK1 (from Beryllium), peptide substrate, 1 mM ATP
Experimental: Example 175. Biochemical Assay for ULK1.3
Activity of ULK1 kinase was determined spectroscopically using a coupled pyruvate kinase/lactate dehydrogenase assay that continuously monitors the ATP hydrolysis-dependent oxidation of NADH (e.g., Schindler et al. Science (2000) 289: 1938-1942). Assays were conducted in 384-well plates (100 uL final volume) using 0.1 nM ULK1 (from Beryllium), 0.075 mM peptide substrate (YANWLAASIYLDGKKK (SEQ ID NO: 5)), 1.5 units pyruvate kinase, 2.1 units lactate dehydrogenase, 1 mM phosphoenol pyruvate, 0.28 mM NADH and 1 mM ATP in assay buffer (100 mM Tris, pH 7.5, 15 mM MgCl2, 0.5 mM DTT, 0.004% (w/v) BSA, and 0.004% Triton X-100). Inhibition of ULK1 was measured by adding serial diluted test compound (final assay concentration of 1% DMSO). A decrease in absorption at 340 nm was monitored continuously for 6 hours at 30° C. on a multi-mode microplate reader (BioTek). The reaction rate was calculated using the 2-3 h time frame. The reaction rate at each concentration of compound was converted to percent inhibition using controls (i.e. reaction with no test compound and reaction with a known inhibitor) and IC50 values were calculated using software routines in Prism (GraphPad software).

IC50 [nM] | Structure (SMILES)
25 to 100 | Cc1nn(C2CCN(C)C2)cc1Nc1ncc(Br)c(NCCCN2CCCOCC2=O)n1 (stereo not shown) [Example 118]
25 to 100 | Cc1nn([C@@H]2CCN(C)C2)cc1Nc1ncc(Br)c(NCCCN2CCOCCC2=O)n1 [Example 138]
25 to 100 | Cc1nn(C2CCN(C(C)C)CC2)cc1Nc1ncc(Br)c(NCCCN2CCCOC2=O)n1 [Example 71]
25 to 100 | Cc1nn(C2CCN(C(C)C)CC2)cc1Nc1ncc(Cl)c(NCCCN2CCCOC2=O)n1 [Example 72]
1 to 25 | CN1CCC(n2ccc(Nc3cc(NCCCN4CCCCC4=O)c(C(F)(F)F)cn3)n2)CC1 [Example 173]

Test system: phospho-Serine 318 ATG13 (pATG13) in HCT-116 cells
Assay: pATG13 levels of mutant KRas HCT-116 cells after treatment with ULK inhibitors in combination with trametinib (ELISA)
Assay type: cell-based, human
Conditions: not given
Experimental: Example 179. pATG13 Levels of Mutant KRas HCT-116 Cells after Treatment with ULK Inhibitors in Combination with Trametinib
(§1) HCT-116 human colon cancer cells (10000 cells/well) were added to a 384-well tissue-culture treated plate in 50 μL of pre-warmed DMEM medium supplemented with 10% characterized fetal bovine serum (Invitrogen, Carlsbad, Calif.), 100 units/mL penicillin G, and 100 μg/mL streptomycin and allowed to grow overnight at 37° C., 5% CO2, and 95% humidity. The following day, 10 μL of media containing trametinib or DMSO as a control was added to wells. The final concentration of trametinib in wells was 250 nM. A dose response of a test compound (0.6 μL per well) was added. DMSO (0.6 μL) was added to control wells. The plate was briefly shaken to mix wells and then incubated at 37° C. overnight. The next day, the media was aspirated and cells were washed with Dulbecco's Phosphate Buffered Saline (Gibco). Cells were lysed using MPER lysis buffer (Pierce, Rockford, Ill.) containing Halt Phosphatase and Protease Inhibitors (Pierce, Rockford, Ill.) and Phosphatase inhibitor cocktail 2 (Sigma, St. Louis, Mo.) at 4° C. for 10 minutes with shaking.
(§2) Cellular levels of phospho-Serine 318 ATG13 (pATG13) were measured via an ELISA method. Total ATG13 Antibody (Cell Signaling Cat #13273) was used to coat the wells. The plate was incubated at 4° C. overnight and washed with ELISA wash buffer (Biolegend Cat #421601). The wells were then blocked with assay diluent (Biolegend Cat #421203) for 1 hour at room temperature. Plate wells were washed with ELISA wash buffer. Cell lysate was added to wells and incubated at room temperature for 2 hours. Plate wells were washed with ELISA wash buffer. Biotinylated pS318-ATG13 antibody (Rockland Immunochemicals Cat #600-401-C49) was diluted in assay diluent and added to each well and incubated at room temperature for 1 hour. Plate wells were washed with ELISA wash buffer. Streptavidin linked to horseradish peroxidase (Thermo Fisher Cat #21140) was diluted in assay diluent and added to each well and incubated at room temperature for 1 hour. Plate wells were washed with ELISA wash buffer. High sensitivity TMB substrate (Biolegend Cat #421101) was added to each well and incubated at room temperature for 20 minutes. The reaction was stopped with 2N Sulfuric Acid. The plate was analyzed at on a plate reader measuring absorbance at 450 nm and 540 nm (background). Signal was calculated by first subtracting the background absorbance at 540 nm from the absorbance at 450 nm for each well. Next, the background corrected absorbance at 450 nm from blank wells was subtracted from test wells. Data was compared to control wells to determine % ATG13 phosphorylation. GraphPad Prism was used to calculate IC50 values.

IC50 [nM] | Structure (SMILES)
10 to 100 | CCc1nn(C2CCN(C)CC2)cc1Nc1ncc(C(F)(F)F)c(NCCCN2CCCOCC2=O)n1 [Example 109]
10 to 100 | Cc1nn(C2CCNCC2)cc1Nc1ncc(C(F)(F)F)c(NCCCN2CCCCC2=O)n1 [Example 14]
10 to 100 | CCc1nn(C2CCNCC2)cc1Nc1ncc(C(F)(F)F)c(NCCCN2CCCCC2=O)n1 [Example 40]

Molecular target: T2, ULK1 kinase (Homo sapiens, UniProt O75385)
T2 construct: purchased Eurofins 14-959
T2 sequence (O75385 with tags, fused parts or gaps): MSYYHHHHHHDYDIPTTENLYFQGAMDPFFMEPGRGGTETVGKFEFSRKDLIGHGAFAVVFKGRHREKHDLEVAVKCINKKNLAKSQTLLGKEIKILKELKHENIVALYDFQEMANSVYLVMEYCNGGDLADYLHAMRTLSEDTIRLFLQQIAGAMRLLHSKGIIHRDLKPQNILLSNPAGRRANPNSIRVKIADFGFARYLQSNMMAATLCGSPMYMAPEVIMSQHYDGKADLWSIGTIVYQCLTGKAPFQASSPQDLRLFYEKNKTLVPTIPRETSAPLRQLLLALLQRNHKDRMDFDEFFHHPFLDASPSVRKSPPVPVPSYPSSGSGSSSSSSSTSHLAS
Assay: Biochemical assay for ULK1.2 (coupled pyruvate kinase/lactate dehydrogenase assay)
Conditions: 19 nM ULK1 (Eurofins), myelin basic protein, 1 mM ATP
Method in brief: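 NADH-coupled PK/LDH read-out at 340 nm, run with 19 nM ULK1, 0.25 mg/mL myelin basic protein and 1 mM ATP. Buffer was 100 mM Tris pH 7.5 with 15 mM MgCl2 and 1% DMSO final. Monitoring was continuous for 6 hours at 30° C; rates from the 2-3 h window were converted to percent inhibition and fitted to a four-parameter curve for IC50.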

IC50 [nM] | Structure (SMILES)
25 to 100 | CCc1nn(C2CCN(C)CC2)cc1Nc1ncc(C(F)(F)F)c(NCCCN2CCCOCC2=O)n1 [Example 109]
1 to 25 | Cc1nn(C2CCNCC2)cc1Nc1ncc(C(F)(F)F)c(NCCCN2CCCCC2=O)n1 [Example 14]
1 to 25 | CCc1nn(C2CCNCC2)cc1Nc1ncc(C(F)(F)F)c(NCCCN2CCCCC2=O)n1 [Example 40]

Test system: phospho-Serine 318 ATG13 (pATG13), ULK kinase substrate, in A549 (KRAS mutant) cells
Assay: pATG13 levels of mutant KRas A549 cells after treatment with ULK inhibitors in combination with trametinib (ELISA)
Assay type: cell-based, human
Conditions: with 250 nM trametinib
Method in brief: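 A549 cells grown overnight were treated overnight at 37 °C with a dose response of test compound plus 250 nM trametinib (final) or DMSO. Lysates were assayed by sandwich ELISA, with total ATG13 capture and biotinylated pS318-ATG13 detection read at 450 nm minus 540 nm, giving % phosphorylation against control and IC50.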

IC50 [nM] | Structure (SMILES)
300 to 600 | Cc1nn(C2CCN(C)C2)cc1Nc1ncc(Br)c(NCCCN2CCCOCC2=O)n1 (stereo not shown) [Example 118]
100 to 300 | CCc1nn(C2CCN(C)CC2)cc1Nc1ncc(C(F)(F)F)c(NCCCN2CCCOCC2=O)n1 [Example 109]
300 to 600 | Cc1nn([C@@H]2CCN(C)C2)cc1Nc1ncc(Br)c(NCCCN2CCOCCC2=O)n1 [Example 138]
300 to 600 | Cc1nn(C2CCNCC2)cc1Nc1ncc(C(F)(F)F)c(NCCCN2CCCCC2=O)n1 [Example 14]
> 600 | Cc1nn(C2CCN(C(C)C)CC2)cc1Nc1ncc(Br)c(NCCCN2CCCOC2=O)n1 [Example 71]
> 600 | Cc1nn(C2CCN(C(C)C)CC2)cc1Nc1ncc(Cl)c(NCCCN2CCCOC2=O)n1 [Example 72]
10 to 100 | CN1CCC(n2ccc(Nc3cc(NCCCN4CCCCC4=O)c(C(F)(F)F)cn3)n2)CC1 [Example 173]
300 to 600 | CCc1nn(C2CCNCC2)cc1Nc1ncc(C(F)(F)F)c(NCCCN2CCCCC2=O)n1 [Example 40]

Molecular target: T3, ULK2 kinase (Homo sapiens, UniProt Q8IYT8)
T3 construct: purchased Eurofins 14-772
Assay: Biochemical assay for ULK2 (coupled pyruvate kinase/lactate dehydrogenase assay)
Conditions: 9.7 nM ULK2 (Eurofins), myelin basic protein, 1 mM ATP; read-out: ULK2.2
Experimental: Example 176. Biochemical Assay for ULK2
Activity of ULK2 kinase was determined spectroscopically using a coupled pyruvate kinase/lactate dehydrogenase assay that continuously monitors the ATP hydrolysis-dependent oxidation of NADH (e.g., Schindler et al. Science (2000) 289: 1938-1942). Assays were conducted in 384-well plates (100 uL final volume) using 9.7 nM ULK2 (Eurofins CAT #14-772), 0.25 mg/mL myelin basic protein, 1.5 units pyruvate kinase, 2.1 units lactate dehydrogenase, 1 mM phosphoenol pyruvate, 0.28 mM NADH and 1 mM ATP in assay buffer (100 mM Tris, pH 7.5, 15 mM MgCl2, 0.5 mM DTT, 0.1% octyl-glucoside, 0.002% (w/v) BSA, and 0.002% Triton X-100). Inhibition of ULK2 was measured by adding serial diluted test compound (final assay concentration of 1% DMSO). A decrease in absorption at 340 nm was monitored continuously for 6 hours at 30° C. on a multi-mode microplate reader (BioTek). The reaction rate was calculated using the 2-3 h time frame. The reaction rate at each concentration of compound was converted to percent inhibition using controls (i.e. reaction with no test compound and reaction with a known inhibitor) and IC50 values were calculated by fitting a four-parameter sigmoidal curve to the data using Prism (GraphPad software).

T3 sequence (Q8IYT8 with tags, fused parts or gaps): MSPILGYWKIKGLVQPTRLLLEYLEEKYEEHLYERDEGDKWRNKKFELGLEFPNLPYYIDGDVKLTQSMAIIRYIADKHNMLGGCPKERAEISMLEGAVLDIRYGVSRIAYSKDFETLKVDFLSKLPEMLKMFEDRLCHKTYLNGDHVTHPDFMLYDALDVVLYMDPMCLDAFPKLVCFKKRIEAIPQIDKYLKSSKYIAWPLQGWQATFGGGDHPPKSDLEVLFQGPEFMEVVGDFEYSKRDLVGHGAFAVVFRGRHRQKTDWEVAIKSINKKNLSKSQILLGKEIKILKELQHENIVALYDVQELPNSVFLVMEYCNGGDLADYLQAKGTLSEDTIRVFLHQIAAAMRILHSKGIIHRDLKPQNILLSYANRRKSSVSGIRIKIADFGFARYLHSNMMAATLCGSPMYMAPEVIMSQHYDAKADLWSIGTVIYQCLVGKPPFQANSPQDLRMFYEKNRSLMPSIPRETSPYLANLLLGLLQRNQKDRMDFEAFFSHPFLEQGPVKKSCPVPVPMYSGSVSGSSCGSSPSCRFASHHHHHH

IC50 [nM] | Structure (SMILES)
1 to 25 | Cc1nn(C2CCNCC2)cc1Nc1ncc(C(F)(F)F)c(NCCCN2CCCCC2=O)n1 [Example 14]

Test system: phospho-Serine 318 ATG13 (pATG13) in MiaPaCa-2 cells
Assay: pATG13 levels of mutant KRas MiaPaCa-2 cells after treatment with ULK inhibitors in combination with trametinib (ELISA)
Assay type: cell-based, human
Conditions: not given
Experimental: Example 178. pATG13 Levels of Mutant KRas MiaPaCa-2 Cells after Treatment with ULK Inhibitors in Combination with Trametinib
as §1, with “MiaPaCa-2” for “HCT-116”, “pancreatic” for “colon”, “G,” for “G, and”, “streptomycin, and 2.5% Horse Serum” for “streptomycin”
as §2

IC50 [nM] | Structure (SMILES)
100 to 300 | Cc1nn(C2CCN(C)C2)cc1Nc1ncc(Br)c(NCCCN2CCCOCC2=O)n1 (stereo not shown) [Example 118]
100 to 300 | CCc1nn(C2CCN(C)CC2)cc1Nc1ncc(C(F)(F)F)c(NCCCN2CCCOCC2=O)n1 [Example 109]
100 to 300 | Cc1nn([C@@H]2CCN(C)C2)cc1Nc1ncc(Br)c(NCCCN2CCOCCC2=O)n1 [Example 138]
100 to 300 | Cc1nn(C2CCN(C(C)C)CC2)cc1Nc1ncc(Br)c(NCCCN2CCCOC2=O)n1 [Example 71]
100 to 300 | Cc1nn(C2CCN(C(C)C)CC2)cc1Nc1ncc(Cl)c(NCCCN2CCCOC2=O)n1 [Example 72]
10 to 100 | CN1CCC(n2ccc(Nc3cc(NCCCN4CCCCC4=O)c(C(F)(F)F)cn3)n2)CC1 [Example 173]
10 to 100 | CCc1nn(C2CCNCC2)cc1Nc1ncc(C(F)(F)F)c(NCCCN2CCCCC2=O)n1 [Example 40]

Molecular target: T4, LRRK2 kinase (Homo sapiens, UniProt Q5S007)
T4 construct: purchased Thermo Fisher
Assay: Biochemical assay for LRRK2 (coupled pyruvate kinase/lactate dehydrogenase assay)
Conditions: 26.4 nM LRRK2 (residues 970-2528), 0.1 mM peptide substrate, 1 mM ATP

T4 sequence (Q5S007 with tags, fused parts or gaps): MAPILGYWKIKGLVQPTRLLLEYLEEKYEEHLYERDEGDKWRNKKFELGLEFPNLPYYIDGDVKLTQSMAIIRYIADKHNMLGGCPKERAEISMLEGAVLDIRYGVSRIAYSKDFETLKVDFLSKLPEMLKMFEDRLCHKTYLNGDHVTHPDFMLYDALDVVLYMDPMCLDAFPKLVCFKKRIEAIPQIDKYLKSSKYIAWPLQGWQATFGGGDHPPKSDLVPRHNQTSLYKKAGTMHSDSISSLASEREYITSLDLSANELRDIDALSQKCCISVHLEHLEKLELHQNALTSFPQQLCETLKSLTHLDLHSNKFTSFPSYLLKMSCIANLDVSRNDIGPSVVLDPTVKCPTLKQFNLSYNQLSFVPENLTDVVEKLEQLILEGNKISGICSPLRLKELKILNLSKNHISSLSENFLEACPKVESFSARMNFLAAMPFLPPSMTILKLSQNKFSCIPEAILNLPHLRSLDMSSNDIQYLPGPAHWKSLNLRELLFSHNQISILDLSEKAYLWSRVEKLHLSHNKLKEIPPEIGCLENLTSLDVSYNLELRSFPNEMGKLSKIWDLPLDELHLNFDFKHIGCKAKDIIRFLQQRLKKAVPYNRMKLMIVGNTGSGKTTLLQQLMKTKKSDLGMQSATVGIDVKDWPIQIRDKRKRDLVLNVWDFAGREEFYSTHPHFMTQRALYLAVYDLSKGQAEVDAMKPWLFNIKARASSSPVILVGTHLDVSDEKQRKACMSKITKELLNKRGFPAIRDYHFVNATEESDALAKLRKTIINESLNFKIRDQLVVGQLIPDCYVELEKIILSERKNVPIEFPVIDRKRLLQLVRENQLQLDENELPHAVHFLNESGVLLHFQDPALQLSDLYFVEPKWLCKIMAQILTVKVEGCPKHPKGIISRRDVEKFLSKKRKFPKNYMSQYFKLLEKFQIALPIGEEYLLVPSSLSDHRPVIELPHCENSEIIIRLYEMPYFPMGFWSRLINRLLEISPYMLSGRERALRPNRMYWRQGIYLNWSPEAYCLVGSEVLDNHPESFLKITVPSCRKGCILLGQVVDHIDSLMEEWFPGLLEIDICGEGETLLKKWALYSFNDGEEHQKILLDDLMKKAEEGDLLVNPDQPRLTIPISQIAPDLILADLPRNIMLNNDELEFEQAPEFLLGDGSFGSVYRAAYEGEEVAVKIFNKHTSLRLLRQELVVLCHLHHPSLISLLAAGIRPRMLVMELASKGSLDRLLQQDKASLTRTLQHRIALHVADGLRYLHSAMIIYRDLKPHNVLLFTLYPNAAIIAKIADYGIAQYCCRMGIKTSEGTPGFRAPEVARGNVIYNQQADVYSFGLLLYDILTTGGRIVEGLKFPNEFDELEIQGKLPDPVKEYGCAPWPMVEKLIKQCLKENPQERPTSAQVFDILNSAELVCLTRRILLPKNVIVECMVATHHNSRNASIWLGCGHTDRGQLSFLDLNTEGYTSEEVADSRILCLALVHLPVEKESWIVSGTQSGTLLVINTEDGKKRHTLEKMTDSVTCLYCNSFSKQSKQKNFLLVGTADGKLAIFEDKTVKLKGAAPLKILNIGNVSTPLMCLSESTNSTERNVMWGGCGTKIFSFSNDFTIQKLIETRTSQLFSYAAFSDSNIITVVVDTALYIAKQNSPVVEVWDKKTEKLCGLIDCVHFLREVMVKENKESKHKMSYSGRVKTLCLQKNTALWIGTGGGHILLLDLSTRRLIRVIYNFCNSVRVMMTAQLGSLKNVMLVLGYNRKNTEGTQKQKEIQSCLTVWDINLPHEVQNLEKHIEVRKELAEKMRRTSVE

IC50 [nM] | Structure (SMILES)
1 to 100 | Cc1nn(C2CCN(C)C2)cc1Nc1ncc(Br)c(NCCCN2CCCOCC2=O)n1 (stereo not shown) [Example 118]
